Experiment: xn = mol fraction of the nth substance listed
Details: 100 kPa

CCCC[n+]1ccn(C)c1.F[P-](F)(F)(F)(F)F + c1ccccc1
viscosity [mPa·s]
Details	x2 = 0.0999	x2 = 0.2002	x2 = 0.3003	x2 = 0.3953	x2 = 0.5001	x2 = 0.6779
313.2 K	54.8	40.7	29	18.5	11.2	7.2
333.2 K	26.9	22	15.1	9.6	7.6	–
